# Reference: patent US10561638B2, “Methods for treating dependence” (Biotie Therapies, Inc., priority 2007, dated 2020)
# Entries after “also recorded” stand apart in the source; their conditions may differ.
# Legend:
# normotensive Wistar rats = test: 7 day radio-telemetry study in normotensive Wistar rats
# Procedure: Male Crl:COBS(WI)BR rats of 15 weeks old were used.
# Both nepicastat and hydralazine were prepared in water with traces of Tween 80. All doses were given orally to the rat in 10 ml/kg and were expressed as free base equivalents.
# All values were expressed as means±SEM. Statistical significance was defined as a p level of less than 0.05.
# Body weights were recorded daily.
# mice = test: Clinical observations and behavioral tests in mice, single oral dose; assay type: in vivo
# Procedure: A single oral dose of vehicle or nepicastat formulation was administered by gavage to each mouse using a rodent intubator. The oral route was selected because it is a proposed clinical route of administration. Dose volumes were calculated on the basis of individual body weights recorded before dosing (body weight data are not tabulated in this report). Food and water were withheld from the mice 2.5 to 3.5 hours before dosing, instead of 1.5 hours as specified in the protocol.
# Clinical observations were recorded before dosing. Beginning 60 minutes after dosing, mice in each treatment group were evaluated in groups of up to 3 over an interval of approximately 10 minutes each for clinical observations and protocol-specified behavioral tests. One mouse in the 30-mg/kg group and 1 mouse in the 100-mg/kg group died after dosing and they were removed from the study. Surviving mice were euthanatized and removed from the study at the end of the observation/testing period.
# […] Clinical observations and behavioral tests were initiated 60 minutes after administration of the test formulation. At the end of the observation period, all surviving mice were euthanatized and removed from the study.
# [1] = Safety and tolerability in squirrel monkeys; assay type: in vivo
# Procedure: Six squirrel monkeys, three non-lesioned and three lesioned (received 2 mg/kg MPTP 3 months prior), were used to study safety and tolerability of nepicastat. Animals received nepicastat at a concentration of 0.5, 2.0, or 5.0 mg/kg twice daily, (10 am and 2 pm), for 5 days with a two-day washout between the different dose levels. Nepicastat was administered via oral syringe at the 0.5, 2.0 […] mg/kg doses and as oral gavage at the 5.0 mg/kg dose.
# [2] = system: spontaneous hypertensive rats; test: SCH-23390 pretreatment study in restrained SHRs; assay type: in vivo; details: nepicastat 10 mg/kg po
# From the text: Male, spontaneous hypertensive rats (280-345 g; Charles River Labs, Kingston, N.Y.) were fasted overnight then anesthetized with ether. A femoral artery and femoral vein were cannulated with PE50 tubing for recording of blood pressure and administration of compounds, respectively. Animals were then placed in MAYO restrainers and their feet loosely taped to the restrainer. Heparinized saline (50 units sodium heparin/ml) was used to maintain patency of each cannula throughout the experiment. The following parameters were continuously recorded using Modular Instruments MI^2 BioReport™ software installed on an IBM personal computer: mean arterial pressure (MAP), heart rate (HR), and the change from baseline for each parameter at specified time points in the experiment.
# All compounds were dissolved on the day of use. Nepicastat was dissolved in deionized water (vehicle) to a free base concentration of 1 mg/ml. Oral dosing volume for nepicastat or vehicle was 10 ml/kg. SCH-23390 was dissolved in saline (vehicle) to a free base concentration of 0.2 mg/ml. […] or saline were administered intravenously as a bolus in a volume of 1.0 ml/kg followed by 0.2 ml flush of isotonic saline.
# Following surgical preparation, each animal was allowed a minimum one hour recovery period. Animals were randomly assigned to four treatment groups: vehicle (iv)/vehicle (po); vehicle (iv)/nepicastat (po); SCH-23390 (iv)/vehicle (po); or SCH-23390 (iv)/nepicastat (po). Once animals were stabilized (minimum one hour), baseline blood pressure and heart rate was determined by taking an average of each parameter over a 15 min period of time. Once baseline blood pressure and heart rate were established, animals were dosed intravenously with either SCH-23390 (200 μg/kg) or vehicle (saline, 1 ml/kg). Fifteen minutes later, animals were orally dosed with either nepicastat (10 mg/kg) or vehicle (deionized water, 10 ml/kg).
# Recorded parameters were measured 15 min prior to intravenous dosing to establish baseline blood pressure and heart rate. Recorded parameters were then measured at 5, 10, and 15 min following intravenous administration of SCH-23390 or vehicle. Following oral administration of nepicastat or vehicle, recorded parameters were measured at 15, 30, 60, 90, 120, 150, 180, 210, and 240 min.
# At the end of the experiment, each animal was anesthetized with halothane and euthanized via decapitation. The cortex, left ventricle (apex), and mesenteric artery were dissected out, weighed, and fixed in 0.4 M perchloric acid. Tissues were then frozen in liquid nitrogen and stored at −70° C. Biochemical analysis are performed on these tissues at a later date to determine catecholamine levels including dopamine and norepinephrine levels. Blood pressure and heart rate were analyzed separately. The change from baseline for blood pressure and heart rate were analyzed by an analysis of variance (ANOVA) with effects for treatment, time, and their interaction. This analysis was performed both for the post-iv time period and for the post-oral time period. Further analyses were performed at each time by an ANOVA with a main effect for […]. Pairwise comparisons were performed following each ANOVA by Fisher's LSD strategy with a Bonferroni correction when the overall treatment effect was not significant.
# An additional analysis was performed to compare the baseline means of each treatment group by an ANOVA with a main effect for treatment and subsequent pairwise comparisons. […]
# [3] = 30, 100, 300 mg/kg single oral dose
smiles,measurement,setting,value
"Cl.NCc1c[nH]c(=S)n1[C@H]1CCc2c(F)cc(F)cc2C1 [nepicastat, (S)-5-Aminomethyl-1-(5,7-difluoro-1,2,3,4-tetrahydronaphth-2-yl)-2,3-dihydro-2-thioxo-1H-imidazole hydrochloride]",peak decrease in blood pressure,"normotensive Wistar rats; 30 mg/kg/d, day 2",−10 mmHg
same,peak antihypertensive response on day 1,"normotensive Wistar rats; 100 mg/kg, 22 hr after dosing",−11 mmHg
same,clinical or gross behavior changes,mice; [3],No treatment-related clinical or gross behavior changes
same,rectal body temperature vs vehicle-control,mice; [3],Lower body temperatures
same,gross motor behavior,mice; acute 1.0-30 mg/kg p.o.,no significant effects on gross motor behavior
same,deaths after dosing,mice; one mouse each at 30 and 100 mg/kg,the deaths were considered incidental
same,adverse finding in one non-lesioned monkey,"[1]; 5.0 mg/kg twice daily, final two days",light beige colored loose stools
same,tolerability,"[1]; 0.5 and 2.0 mg/kg twice daily, 5 days",well tolerated at the two lower doses
same,heart rate vs vehicle,[2]; SCH-23390 200 μg/kg iv,did not decrease the heart rate as much as observed in vehicle treated animals
same,mean arterial pressure,[2],significant decrease (p<0.05) in mean arterial pressure
same,time post dose by which MAP decrease was significant,[2],≤ 30 min
same,antihypertensive effect of nepicastat after pretreatment with SCH-23390,"[2]; SCH-23390 iv, hydrochloride",not attenuated; also recorded: did not significantly attenuate
